Source: ChEMBL document CHEMBL1201862, “PubChem BioAssay data set” (2004)
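Tested at 5 concentrations; 48 h exposure; 96-well plates; endpoints linearly interpolated, else capped at highest concentration. Abbreviation: GI50, concentration required for 50% inhibition of growth.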 Active and inactive are the calls of the source. Rule as the data show it: active = GI50 up to about 1.1 µM and inactive = higher. Where a SMILES comes first, the peptide text is derived from it. [ ]: non-standard residue; d: D form. Phe(F5) = N[CH](Cc1c(F)c(F)c(F)c(F)c1F)C(=O)O

Tests used:
Experiment in all cases: DTP human tumour cell line panel, 48 h
LXFL 529 = test system: LXFL 529
COLO 205 = test system: COLO 205
SK-MEL-28 = test system: SK-MEL-28
MDA-MB-435 = test system: MDA-MB-435
HT-29 = test system: HT-29
NCI-H460 = test system: NCI-H460
HOP-18 = test system: HOP-18
MDA-N = test system: MDA-N
A498 = test system: A498
NCI-H522 = test system: NCI-H522
UACC-257 = test system: UACC-257
OVCAR-8 = test system: OVCAR-8
DMS-114 = test system: DMS-114
HCC 2998 = test system: HCC 2998
OVCAR-5 = test system: OVCAR-5
SNB-75 = test system: SNB-75
A549 = test system: A549
T47D = test system: T47D
UO-31 = test system: UO-31
SK-MEL-5 = test system: SK-MEL-5
UACC-62 = test system: UACC-62
DMS-273 = test system: DMS-273
HCT-15 = test system: HCT-15
Hs-578T = test system: Hs-578T
ACHN = test system: ACHN
SW-620 = test system: SW-620
SNB-78 = test system: SNB-78
PC-3 = test system: PC-3
M14 = test system: M14
NCI/ADR-RES = test system: NCI/ADR-RES
SF-268 = test system: SF-268
MOLT-4 = test system: MOLT-4
SN12C = test system: SN12C
RPMI-8226 = test system: RPMI-8226
RXF 393 = test system: RXF 393
LOX IMVI = test system: LOX IMVI
CCRF-CEM = test system: CCRF-CEM
K562 = test system: K562
U-251 = test system: U-251
OVCAR-4 = test system: OVCAR-4
SR = test system: SR
NCI-H226 = test system: NCI-H226
MDA-MB-231 = test system: MDA-MB-231
HCT-116 = test system: HCT-116
EKVX = test system: EKVX
CAKI-1 = test system: CAKI-1
M19-MEL = test system: M19-MEL
HOP-62 = test system: HOP-62
SF-539 = test system: SF-539
SF-295 = test system: SF-295
Malme-3M = test system: Malme-3M
NCI-H23 = test system: NCI-H23
HL-60 = test system: HL-60
OVCAR-3 = test system: OVCAR-3
KM-20L2 = test system: KM-20L2
MCF7 = test system: MCF7
DLD-1 = test system: DLD-1
IGROV-1 = test system: IGROV-1
DU-145 = test system: DU-145
SK-OV-3 = test system: SK-OV-3
SK-MEL-2 = test system: SK-MEL-2
SNB-19 = test system: SNB-19
786-0 = test system: 786-0
XF498 = test system: XF498
KM12 = test system: KM12

COC(=O)C(CC(C)C)NC(=O)C(Cc1c[nH]cn1)NC(=O)CNC(=O)C(NC(=O)C(C)NC(=O)C(Cc1c[nH]c2ccccc12)NC(=O)C(CCC(=O)O)NC(=O)C(N)Cc1c(F)c(F)c(F)c(F)c1F)C(C)C (stereo not given) (H-[Phe(F5)]EWAVGHL-OMe; configuration not given here)
GI50 (LXFL 529): > 100 µM (inactive)
GI50 (COLO 205): > 12.5 µM (inactive)
GI50 (SK-MEL-28): > 12.5 µM (inactive)
GI50 (MDA-MB-435): > 12.5 µM (inactive)
GI50 (HT-29): > 12.5 µM (inactive)
GI50 (NCI-H460): > 12.5 µM (inactive)
GI50 (HOP-18): > 100 µM (inactive)
GI50 (MDA-N): > 12.5 µM (inactive)
GI50 (A498): > 12.5 µM (inactive)
GI50 (NCI-H522): > 12.5 µM (inactive)
GI50 (UACC-257): > 12.5 µM (inactive)
GI50 (OVCAR-8): > 12.5 µM (inactive)
GI50 (DMS-114): > 100 µM (inactive)
GI50 (HCC 2998): > 12.5 µM (inactive)
GI50 (OVCAR-5): > 12.5 µM (inactive)
GI50 (SNB-75): > 100 µM (inactive)
GI50 (A549): > 12.5 µM (inactive)
GI50 (T47D): > 12.5 µM (inactive)
GI50 (UO-31): > 12.5 µM (inactive)
GI50 (SK-MEL-5): > 12.5 µM (inactive)
GI50 (UACC-62): > 12.5 µM (inactive)
GI50 (DMS-273): > 100 µM (inactive)
GI50 (HCT-15): > 12.5 µM
GI50 (Hs-578T): > 12.5 µM (inactive)
GI50 (ACHN): > 12.5 µM (inactive)
GI50 (SW-620): > 12.5 µM (inactive)
GI50 (SNB-78): > 100 µM (inactive)
GI50 (PC-3): > 12.5 µM (inactive)
GI50 (M14): > 12.5 µM (inactive)
GI50 (NCI/ADR-RES): > 12.5 µM (inactive)
GI50 (SF-268): > 12.5 µM (inactive)
GI50 (MOLT-4): > 12.5 µM (inactive)
GI50 (SN12C): > 12.5 µM (inactive)
GI50 (RPMI-8226): > 12.5 µM (inactive)
GI50 (RXF 393): > 12.5 µM (inactive)
GI50 (LOX IMVI): > 12.5 µM (inactive)
GI50 (CCRF-CEM): > 12.5 µM (inactive)
GI50 (K562): > 12.5 µM (inactive)
GI50 (U-251): > 12.5 µM (inactive)
GI50 (OVCAR-4): > 12.5 µM (inactive)
GI50 (SR): > 12.5 µM (inactive)
GI50 (NCI-H226): > 12.5 µM (inactive)
GI50 (MDA-MB-231): > 12.5 µM (inactive)
GI50 (HCT-116): > 12.5 µM (inactive)
GI50 (EKVX): > 12.5 µM (inactive)
GI50 (CAKI-1): > 12.5 µM (inactive)
GI50 (M19-MEL): > 100 µM (inactive)
GI50 (HOP-62): > 12.5 µM (inactive)
GI50 (SF-539): > 12.5 µM (inactive)
GI50 (SF-295): > 12.5 µM (inactive)
GI50 (Malme-3M): > 12.5 µM (inactive)
GI50 (NCI-H23): > 12.5 µM (inactive)
GI50 (HL-60): > 12.5 µM (inactive)
GI50 (OVCAR-3): > 12.5 µM (inactive)
GI50 (KM-20L2): > 100 µM (inactive)
GI50 (MCF7): > 12.5 µM (inactive)
GI50 (DLD-1): > 100 µM (inactive)
GI50 (IGROV-1): > 12.5 µM (inactive)
GI50 (DU-145): > 12.5 µM (inactive)
GI50 (SK-OV-3): > 12.5 µM (inactive)
GI50 (SK-MEL-2): > 12.5 µM (inactive)
GI50 (SNB-19): > 100 µM (inactive)
GI50 (786-0): > 12.5 µM (inactive)
GI50 (XF498): > 100 µM (inactive)
GI50 (KM12): > 12.5 µM (inactive)
